Results as given in patent US20090030086A1, “ANTIMICROBIAL AGENTS” (priority 2005, published 2009).
Converted amounts (≈) assume the structure as drawn. Read-outs that look alike come from different tables or passages of the source.

Legend:
S. aureus ATCC 29213 [1] = experiment: MBC assay; format: cell-based, Staphylococcus aureus; details: for MBC: Staphylococcus aureus
Protocol: (§1) The staphylococci and enterococci were cultured and maintained on Mueller-Hinton Medium (agar and broth) at pH 7.2; they were incubated aerobically at 37° C. for 24 hours.
(§2) This assay, normally carried out after an MIC assay, determines the minimum concentration of a compound that is lethal to the micro-organism being tested.
(§3) These samples were then individually sub-cultured on non-selective agar medium, under the incubation conditions described above. Following incubation they were examined visually for bacterial growth.
(§4) The following experiments all used S. aureus ATCC 29213 as the test organism. MIC, MBC and DDA assays, as described above, were carried out using a range of different benzoquinones and hydroquinones. Supplemented DDA assays, in the presence of salt, lipid and blood, were also conducted.

P. acnes NCTC 737 [2] = experiment: Disc diffusion assay (DDA); format: cell-based, Propionibacterium acnes; details: Cutibacterium acnes
Protocol: (§5) The Propionibacterium spp organisms were cultured and maintained on Wilkins-Chalgren Anaerobe Medium (agar and broth) at pH 6.0; cultures were incubated anaerobically at 37° C. for 72 hours.
(§6) A sterile paper disc was impregnated with a sample of the test compound and a minimum of 30 minutes allowed for the solvents to evaporate as far as possible. The disc was then placed on an agar plate onto which the test micro-organism had been inoculated. The plate was then incubated under the conditions described above, following which it was examined visually for signs of bacterial growth. […] The diameter of this zone of “inhibition” was measured using a ProtoCOL™ automated zone sizer (Synbiosis, Cambridge, UK).
(§7) The area of the zone of inhibition was calculated from the measured zone diameter (D) using the formula π(D/2)^2.
(§8) For most DDA assays, 200 μg of each compound was loaded onto each disc.

P. acnes NCTC 737 [3] = experiment: MBC assay; format: cell-based, Propionibacterium acnes; details: for MBC: Cutibacterium acnes, NCTC737
Protocol: as §5, §2, §3
(§9) MIC, MBC and DDA assays, as described above, were carried out using a range of different benzoquinones and hydroquinones. Supplemented DDA assays, in the presence of salt and lipid, were also conducted.

P. acnes NCTC 737 [4] = experiment: Supplemented disc diffusion assay; format: cell-based, Propionibacterium acnes; details: for zone of inhibition at 200 µg/disc: Cutibacterium acnes, NCTC737, 72 h; for effect of lipid on antimicrobial activity: activity increases in the presence of lipid
Protocol: as §5, §6
(§10) Performance under these conditions can provide a more reliable indication of activity on topical application. For assays conducted using S. aureus strains, the supplements were defibrinated horse blood (5% v/v), lipid (Tween™ 80 at 1% v/v) and sodium chloride (100 mM). For those using Propionibacterium spp. strains, the supplements were lipid (Tween™ 80 at 1% v/v) and sodium chloride (100 mM).
as §9, §8

S. aureus ATCC 29213 [5] = experiment: Disc diffusion assay (DDA); format: cell-based, Staphylococcus aureus; details: Staphylococcus aureus
Protocol: as §1, §6, §7, §8

S. aureus ATCC 29213 [6] = experiment: MIC assay; format: cell-based, Staphylococcus aureus; details: Staphylococcus aureus
Protocol: 1. Staphylococcus aureus—the principal staphylococcal test micro-organism used in these studies was Staphylococcus aureus ATCC 29213. This strain is the one recommended for QC/QA purposes in Minimum Inhibitory Concentration (MIC) assays by the US Clinical and Laboratory Standards Institute (formerly the NCCLS), an FDA-recognised body.
as §1
(§11) This is a standard international method for quantitatively assessing the antimicrobial activity of a compound in a liquid medium. The method used a 96-well microtitre plate, capable of holding about 200 μl of liquid per well. […] The culture media were as described above for the relevant test organisms.
(§12) The wells were inoculated with a liquid suspension of freshly grown micro-organism and incubated under the conditions described above. After incubation, the microtitre plate was examined visually (with the aid of a light box) for cloudiness in each well, which would indicate microbial growth. The MIC value was recorded as the lowest concentration of test compound required to inhibit microbial growth, i.e., the lowest concentration for which the liquid in the well remained clear.
(§13) The assays were conducted in duplicate and included both negative (culture medium only) and positive (culture medium, diluting solvent and inoculum) controls.
as §4

S. aureus ATCC 29213 [7] = experiment: Supplemented disc diffusion assay; format: cell-based, Staphylococcus aureus; details: Staphylococcus aureus, ATCC29213, 24 h
Protocol: as §1, §6, §10, §4, §8

P. acnes NCTC 737 [8] = experiment: MIC assay; format: cell-based, Propionibacterium acnes; details: for MIC: Cutibacterium acnes
Protocol: 2. Propionibacterium spp.—the principal propionibacterial strain used in these studies was Propionibacterium acnes NCTC 737.
as §5, §11, §12, §13, §9

[9] = NCTC737, P. acnes NCTC 737, unsupplemented agar, 200 μg per disc (2,6-dimethoxy-p-benzoquinone 100 μg), read-out: DDA (diameter of zone of inhibition)
[10] = P. acnes NCTC 737, read-out: MBC
[11] = P. acnes NCTC 737, Tween 80 at 1% v/v, 200 μg per disc (2,6-dimethoxy-p-benzoquinone 100 μg), read-out: DDA + lipid
[12] = P. acnes NCTC 737, sodium chloride 100 mM, 200 μg per disc (2,6-dimethoxy-p-benzoquinone 100 μg), read-out: DDA + salt
[13] = ATCC29213, S. aureus ATCC 29213, unsupplemented agar, 200 μg per disc (thymoquinone 50 μg, 2,6-dimethoxy-p-benzoquinone 100 μg), read-out: DDA (diameter of zone of inhibition)
[14] = ATCC29213, S. aureus ATCC 29213, Mueller-Hinton broth pH 7.2, aerobic, 37° C., 24 hours, read-out: MIC
[15] = S. aureus ATCC 29213, Tween 80 at 1% v/v, 200 μg per disc (thymoquinone 50 μg, 2,6-dimethoxy-p-benzoquinone 100 μg), read-out: DDA + lipid
[16] = S. aureus ATCC 29213, defibrinated horse blood 5% v/v, 200 μg per disc (thymoquinone 50 μg, 2,6-dimethoxy-p-benzoquinone 100 μg), read-out: DDA + blood
[17] = S. aureus ATCC 29213, sodium chloride 100 mM, 200 μg per disc (thymoquinone 50 μg, 2,6-dimethoxy-p-benzoquinone 100 μg), read-out: DDA + salt
[18] = NCTC737, P. acnes NCTC 737, Wilkins-Chalgren broth pH 6.0, anaerobic, 37° C., 72 hours, read-out: MIC
[19] = NCTC737, read-out: DDA (diameter of zone of inhibition)
[20] = ATCC29213, read-out: DDA (diameter of zone of inhibition)

Compound | MIC/MBC ratio (S. aureus ATCC 29213 [1]) | MBC (S. aureus ATCC 29213 [1]; ATCC29213, read-out: MBC) [mg/L] | zone of inhibition at 200 µg/disc (P. acnes NCTC 737 [2]; [9]) [mm] | MBC (P. acnes NCTC 737 [3]; [10]) [mg/L] | MIC/MBC ratio (P. acnes NCTC 737 [3]; P. acnes NCTC 737) | zone of inhibition at 200 µg/disc (P. acnes NCTC 737 [4]; [11]) [mm] | zone of inhibition at 200 µg/disc (P. acnes NCTC 737 [4]; [12]) [mm] | zone of inhibition at 200 µg/disc (S. aureus ATCC 29213 [5]; [13]) [mm] | MIC (S. aureus ATCC 29213 [6]; [14]) [mg/L] | zone of inhibition at 200 µg/disc (S. aureus ATCC 29213 [7]; [15]) [mm] | zone of inhibition at 200 µg/disc (S. aureus ATCC 29213 [7]; [16]) [mm] | zone of inhibition at 200 µg/disc (S. aureus ATCC 29213 [7]; [17]) [mm] | MIC (P. acnes NCTC 737 [8]; [18]) [mg/L] | MBC (S. aureus ATCC 29213 [1]; ATCC29213) [mg/L] | zone of inhibition at 200 µg/disc (P. acnes NCTC 737 [2]; [19]) [mm] | MBC (P. acnes NCTC 737 [3]) [mg/L] | zone of inhibition at 200 µg/disc (P. acnes NCTC 737 [4]; read-out: DDA + lipid) [mm] | zone of inhibition at 200 µg/disc (P. acnes NCTC 737 [4]; read-out: DDA + salt) [mm] | effect of lipid on antimicrobial activity (P. acnes NCTC 737 [4]; P. acnes NCTC 737) | zone of inhibition at 200 µg/disc (S. aureus ATCC 29213 [5]; [20]) [mm] | further results
CC1=CC(=O)C(Cl)=CC1=O [2-chloro-5-methyl-p-benzoquinone] | 1 | 15.6 (≈ 99.6 µM) | 38.9 | 15.6 (≈ 99.6 µM) | 1 | 38.8 | 37.2 | 34.5 | 15.6 (≈ 99.6 µM) | 33.9 | 17.7 | 34.2 | 15.6 (≈ 99.6 µM) | – | – | – | – | – | – | – | –
O=C1C=CC(=O)C(Cl)=C1 [2-chloro-p-benzoquinone] | 1 | – | – | – | 0.5 | – | – | – | – | – | – | – | – | 31.2 (≈ 219 µM) | 25.8 | 125 (≈ 877 µM) | 31.4 | 31.7 | potentiated | 25.3 | MIC (S. aureus ATCC 29213 [6]; ATCC29213, 24 h, pH 7.2): 31.2 mg/L (≈ 219 µM); zone of inhibition at 200 µg/disc (S. aureus ATCC 29213 [7]; read-out: DDA + blood): 17.2 mm; zone of inhibition at 200 µg/disc (S. aureus ATCC 29213 [7]; read-out: DDA + lipid): 22.8 mm; zone of inhibition at 200 µg/disc (S. aureus ATCC 29213 [7]; read-out: DDA + salt): 26.2 mm; activity against P. acnes NCTC 737 (in words) (P. acnes NCTC 737 [8]): strongly so; MIC (P. acnes NCTC 737 [8]; NCTC737, 72 h, pH 6): 62.5 mg/L (≈ 438 µM)
CC1=CC(=O)C=CC1=O [2-methyl-p-benzoquinone] | 1 | – | – | – | 0.5 | – | – | – | – | – | – | – | – | 15.6 (≈ 128 µM) | 35.9 | 31.2 (≈ 256 µM) | 48.9 | 42.6 | potentiated | 35.1 | MIC (S. aureus ATCC 29213 [6]; ATCC29213, 24 h, pH 7.2): 15.6 mg/L (≈ 128 µM); zone of inhibition at 200 µg/disc (S. aureus ATCC 29213 [7]; read-out: DDA + blood): 15.9 mm; zone of inhibition at 200 µg/disc (S. aureus ATCC 29213 [7]; read-out: DDA + lipid): 35.6 mm; zone of inhibition at 200 µg/disc (S. aureus ATCC 29213 [7]; read-out: DDA + salt): 35 mm; activity against P. acnes NCTC 737 (in words) (P. acnes NCTC 737 [8]): strongly so; MIC (P. acnes NCTC 737 [8]; NCTC737, 72 h, pH 6): 15.6 mg/L (≈ 128 µM)
O=[N+]([O-])c1c(O)cccc1O [2-nitroresorcinol] | <0.5 | > 250 | 0 | > 250 | <0.5 | 0 | 12.7 | 10.5 | 125 (≈ 806 µM) | 0 | 0 | 12.8 | 125 (≈ 806 µM) | – | – | – | – | – | – | – | –
